# “Also recorded” adds a separate entry of the source.
# Columns and labels:
# KRAS(WT) = target: T1, KRAS(WT) (Homo sapiens, UniProt P01116); assay: Yeast display binding titration, KRAS(WT); conditions: either nucleotide-bound form
# T1 construct: KRAS4B residues 1-174 containing G12C, G12V, G12D, G13D, Q61L, WT; made in house; host or cells: E. coli BL21(DE3) with pBirA
# Description: (§1) Nucleotide exchange of RAS. Purified RAS proteins used in binding experiment and crystallization were prepared by diluting stock protein (typically containing 20-250 μM RAS) 25 times with 20 mM Tris-Cl buffer pH 7.5 containing 5 mM EDTA, 0.1 mM DTT and 1 mM final concentration of a nucleotide (GDP or GTPγS). Samples were incubated at 30° C. for 30 minutes. MgCl2 was then added to the sample at a final concentration of 20 mM and the solution was further incubated on ice for at least 5 minutes prior to use.
# (§2) Monobody development. General procedures for the development of monobodies against purified protein targets have been described previously. After four rounds of phage display library selection using biotinylated KRAS(G12C) at concentrations of 100 nM, 100 nM, 50 nM and 50 nM, the genes encoding monobodies from the enriched phage pool were transferred to a yeast display vector, which was used to construct yeast-display libraries. The yeast display libraries were sorted using a Bio-Rad S3e fluorescence-activated cell sorter or a […] II cell sorter (BD Biosciences). […] Single clones were then screened for selective binding to RAS mutants. The expression of monobodies on the surface of yeast cells were detected using mouse anti-VS and anti-mouse IgG-FITC conjugate. Target binding was detected with neutravidin Dylight650. Yeast cells were analyzed using an iQue flow cytometer (Sartorius). […]
# KRAS(G12C) = KRAS(G12C) (Homo sapiens, UniProt P01116, G12C); assay: BLI binding to KRAS(G12C); design: KRAS4B residues 1-174 containing G12C, G12V, G12D, G13D, Q61L, WT; His6 (N, cleaved yes); Avi-tag (N, cleaved yes); made in house; host or cells: E. coli BL21(DE3); conditions: nucleotide state GTPγS
# Text: Protein expression and purification. All proteins used for monobody development and binding assays, including RAS constructs (KRAS4B residues 1-174 containing G12C, G12V, G12D, G13D, Q61L, WT, NRAS(WT), and HRAS(WT)), Monobodies, and RAF-1 RBD (residues 51-131) were produced with an N-terminal tag containing His6, Avi-tag for biotinylation and a TEV protease recognition site using the pHBT vector. The proteins were produced in E. coli BL21(DE3). To produce biotinylated proteins, E. coli BL21(DE3) with the pBirA plasmid was used as the host and grown in the presence of 50 μM of biotin. Expressed proteins were purified using Ni-Sepharose columns (GE Healthcare) via gravitational flow, followed by dialysis in Tris buffered saline (TBS, 50 mM Tris-Cl pH7.5 containing 150 mM NaCl) for non-RAS proteins. TBS containing 20 mM MgCl2 and 0.5 mM DTT was used for RAS proteins. Samples were further purified using a Superdex 75 size exclusion column on AKTA Pure systems (GE Healthcare). HRAS(WT) and HRAS(G12C) (residues 1-166) used for crystallization was produced as a fusion protein with His6 and yeast SUMO at the N terminus using an in-house vector described previously. […]
# Biolayer interferometry (BLI) analysis. […] BLI signals were analyzed using Octet Data Analysis software (Molecular Devices).
# NRAS(WT) = target: T2, NRAS(WT) (Homo sapiens, UniProt P01111); assay: Yeast display binding titration, NRAS(WT); conditions: GTPγS and GDP bound states
# T2 construct: made in house; host or cells: E. coli BL21(DE3) with pBirA
# Description: as §1, §2
# HRAS(WT) = target: T3, HRAS(WT) (Homo sapiens, UniProt P01112); assay: Yeast display binding titration, HRAS(WT); conditions: GTPγS and GDP bound states
# T3 construct: made in house; host or cells: E. coli BL21(DE3) with pBirA
# Description: as §1, §2
# PATU8902 tumors = assay: Mouse xenograft model, PATU8902; assay type: in vivo; conditions: subcutaneous PATU8902 in nude mice; dox-induced expression after tumor size exceeded 100 mm^3
# Description: Mouse xenograft experiments. Animal experiments were approved by NYU Langone Institutional Animal Care and Use Committee (IACUC, protocol 170602). PATU8902 or H23 cells expressing monobody under a dox-inducible promotor (5×10^6) were subcutaneously injected into athymic nude mice (Charles River). Once the average tumor size exceeded 100 mm^3, the mice were given food containing doxycycline (Envigo; TD.01306). Tumor sizes were measured using a digital caliper thrice a week along with body weight to ensure that mice were healthy through the duration of doxycycline treatment.
# [1] = test system: endogenous KRAS from PATU8902 (KRAS(G12V)) and H358 (KRAS(G12C)); assay: Pull-down assay with biotinylated 12VC1 from cell lysates; assay type: binding; conditions: PATU8902 and H358 lysates vs growth factor stimulated HEK293T (wild-type RAS)
# Description: Pull-down assays. H358, PATU8902, and HEK293T cells were cultured in 10 cm plates (Corning, #430167). H358 and PATU8902 cells were treated with and without ARS1620 (SelleckChem, 58707) at a final concentration of 10 μM for 1.5 hours, and HEK293T cells were treated with EGF (PeproTech; AF-100-15) at a final concentration of 50 ng/mL for 4 minutes. Cells were lysed by incubating them on ice for 15 minutes in GTPase lysis buffer (25 mM Tris-Cl pH 7.2, 150 mM NaCl, 5 mM MgCl2, 1% NP-40 and 5% glycerol supplemented with protease tablet (Roche, 5892991001) and phosphatase inhibitors (1 mM sodium orthovanadate, 10 mM NAF, 54 mM β-glycerol phosphate)) immediately before analysis. After centrifugation for 15 minutes at 15,000 g, the supernatants were collected and incubated with SA agarose resins (Thermo Fisher Scientific) for 1 hour at 4° C. to remove non-specific binders to the resins. After the removal of resins via centrifugation, the pre-cleared lysates were then incubated with biotinylated monobodies bound to SA agarose resins for 3 hours at 4° C. while rotating. The agarose resins were then washed twice with the GTPase lysis buffer and boiled in 1×SDS buffer with 37.5 mM β-mercaptoethanol and processed for Western blotting using a pan-RAS antibody (Santa Cruz Biotechnology, C-4).
# T3 sequence (P01112 whole entry): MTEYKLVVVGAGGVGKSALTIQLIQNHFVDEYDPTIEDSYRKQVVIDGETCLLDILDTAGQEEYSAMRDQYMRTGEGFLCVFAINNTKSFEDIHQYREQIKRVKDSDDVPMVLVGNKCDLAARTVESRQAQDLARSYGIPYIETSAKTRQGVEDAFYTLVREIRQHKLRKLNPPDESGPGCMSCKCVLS
# T2 sequence (P01111 whole entry): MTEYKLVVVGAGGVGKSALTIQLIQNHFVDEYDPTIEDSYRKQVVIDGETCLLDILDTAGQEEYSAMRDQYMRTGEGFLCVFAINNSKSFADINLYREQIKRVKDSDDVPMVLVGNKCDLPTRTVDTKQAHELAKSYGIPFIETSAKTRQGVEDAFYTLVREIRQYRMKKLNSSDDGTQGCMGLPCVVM
sequence,measurement,setting,value
VSSVPTKLEVVAATPTSLLISWDAPAVTVFFYVITYGETGHGVGAFQAFKVPGSKSTATISGLKPGVDYTITVYARGYSKQGPYKPSPISINYRT [12VC1],binding,KRAS(WT),did not detectably bind
same,koff,KRAS(G12C),0.0027 s⁻¹
same,binding,NRAS(WT),no binding; also recorded: did not detectably bind
same,binding,HRAS(WT),no binding; also recorded: did not detectably bind
same,tumor growth,PATU8902 tumors,significantly reduced tumor growth
same,capture of endogenous KRAS in pull-down,[1],selectively captured endogenous KRAS

# — patent US12049483B2, “Selective and noncovalent inhibitors of oncogenic RAS mutants” (New York University, priority 2020, dated 2024)
